The target of the series is NAD(P)H dehydrogenase [quinone] 1 (Homo sapiens, UniProt P15559). The series is described as follows: Prodrug activation assessed as NQO1 (unknown origin)-mediated RSSH release by measuring rate constant.
Chain of NAD(P)H dehydrogenase [quinone] 1 (P15559 whole entry): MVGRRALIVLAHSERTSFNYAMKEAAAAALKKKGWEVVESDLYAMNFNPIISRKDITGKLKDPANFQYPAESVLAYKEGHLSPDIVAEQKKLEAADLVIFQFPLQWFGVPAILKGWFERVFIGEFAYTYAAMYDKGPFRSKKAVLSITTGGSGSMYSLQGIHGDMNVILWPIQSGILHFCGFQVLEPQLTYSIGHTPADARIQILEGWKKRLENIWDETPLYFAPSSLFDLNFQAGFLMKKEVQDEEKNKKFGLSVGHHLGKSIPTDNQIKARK
Turning to `CN1CCN(C)C1=O`, the K was 0.212 min⁻¹.
The same measure for `Cc1c(C)c2c(c(C)c1O)C(C)(C)CC(=O)O2`: 0.32 min⁻¹.
As for `COC(=O)[C@H](NC(C)=O)C(C)(C)SSCc1ccc(N(C)C(=O)CC(C)(C)C2=C(C)C(=O)C(C)=C(C)C2=O)cc1`, the K was determined as 0.162 min⁻¹.
In the case of `COC(=O)[C@H](NC(C)=O)C(C)(C)SSC(=O)N(C)CCN(C)C(=O)CC(C)(C)C1=C(C)C(=O)C(C)=C(C)C1=O` it was 0.17 min⁻¹.

The values above are taken from ChEMBL document CHEMBL6127099, “Stimuli-responsive prodrugs with self-immolative linker for improved cancer therapy” (Eur J Med Chem, 2024).
